The supplement of paper PMC10331698
± gives the standard deviation of the averaged measurements.

Key:
Experiment in all cases: level (log10 ratio to DMSO vehicle control); higher = higher biomarker level / cell amount than vehicle control
Conditions in all cases: in DMSO
[1] = compound: FC(F)(F)C(F)(F)C(F)(F)C(F)(F)C(F)(F)C(F)(F)C(F)(F)CCI [1-Iodo-1H,1H,2H,2H-perfluorononane]
Description: (§1)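 BioMAP Diversity Plus panel of 12 human primary cell co-culture systems (3C, 4H, LPS, SAg, BT, BF4T, BE3C, CASM3C, HDF3CGF, KF3CT, MyoF, Mphg). Compounds were added 1 h before stimulation and left for 24 h (MyoF 48 h; BT 72 h for soluble read-outs or 6 d for IgG). Biomarkers were read by ELISA, cytotoxicity by SRB, PBMC viability and proliferation by Alamar Blue. Each well value was divided by the mean of 8 DMSO control wells on the same plate and log10 transformed; duplicate blinded samples were tested at 4 concentrations.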

Hexafluoroglutaric acid = compound: O=C(O)C(F)(F)C(F)(F)C(F)(F)C(=O)O [Hexafluoroglutaric acid]
Description: as §1

Perfluorohexanoic acid = compound: O=C(O)C(F)(F)C(F)(F)C(F)(F)C(F)(F)C(F)(F)F [Perfluorohexanoic acid]
Description: as §1

[2] = compound: O=P(O)(O)CCC(F)(F)C(F)(F)C(F)(F)C(F)(F)C(F)(F)C(F)(F)C(F)(F)C(F)(F)F [((Perfluorooctyl)ethyl)phosphonic acid]
Description: as §1

[3] = compound: O=S(=O)(O)C(F)(F)C(F)(F)C(F)(F)C(F)(F)C(F)(F)C(F)(F)C(F)(F)C(F)(F)F [Perfluorooctanesulfonic acid]
Description: as §1

[4] = compound: O=S(=O)(O)C(F)(F)C(F)(F)C(F)(F)C(F)(F)C(F)(F)C(F)(F)C(F)(F)C(F)(F)F [Potassium perfluorooctanesulfonate]
Description: as §1

[5] = compound: O=S(=O)(O)C(F)(F)C(F)(F)C(F)(F)C(F)(F)F [Perfluorobutanesulfonic acid]
Description: as §1

Row | Test System | level (log10) ([1]; 6700 nM) | level (log10) ([1]; 20000 nM) | level (log10) (Hexafluoroglutaric acid; 6700 nM) | level (log10) (Hexafluoroglutaric acid; 20000 nM) | level (log10) (Hexafluoroglutaric acid; 60000 nM) | level (log10) (Perfluorohexanoic acid; 6700 nM) | level (log10) (Perfluorohexanoic acid; 20000 nM) | level (log10) (Perfluorohexanoic acid; 60000 nM) | level (log10) ([2]; 6700 nM) | level (log10) ([2]; 20000 nM) | level (log10) ([2]; 60000 nM) | level (log10) ([3]; 6700 nM) | level (log10) ([3]; 20000 nM) | level (log10) ([3]; 60000 nM) | level (log10) ([4]; 6700 nM) | level (log10) ([4]; 20000 nM) | level (log10) ([4]; 60000 nM) | level (log10) ([5]; 6700 nM) | level (log10) ([5]; 20000 nM) | level (log10) ([5]; 60000 nM)
1 | CASM3C:CD87/uPAR | -0.0105 ± 0.028 | -0.013 ± 0.028 | -0.001 ± 0.014 | -0.0185 ± 0.033 | -0.0075 ± 0.0035 | -0.003 ± 0.027 | 0.0085 ± 0.022 | -0.012 ± 0.0014 | -0.022 ± 0.013 | -0.0345 ± 0.015 | -0.041 ± 0.014 | -0.0005 ± 0.0078 | -0.0085 ± 0.015 | -0.016 ± 0.016 | -0.0025 ± 0.012 | -0.016 ± 0.0014 | -0.0095 ± 0.011 | -0.0275 ± 0.03 | -0.047 ± 0.045 | -0.0575 ± 0.0092
2 | CASM3C:CD106/VCAM-1 | -0.019 ± 0.0099 | -0.0645 ± 0.012 | -0.0105 ± 0.03 | -0.0125 ± 0.036 | 0.012 ± 0.011 | -0.013 ± 0.011 | -0.002 ± 0.014 | -0.029 ± 0.018 | -0.0325 ± 0.00071 | 0 ± 0.0014 | 0.0335 ± 0.019 | -0.035 ± 0.0028 | -0.038 ± 0.016 | -0.104 ± 0.041 | -0.0125 ± 0.019 | -0.0175 ± 0.005 | -0.104 ± 0.041 | -0.0465 ± 0.021 | -0.0255 ± 0.025 | -0.033 ± 0.0057
3 | CASM3C:CD141/Thrombomodulin | 0.0135 ± 0.0035 | 0.0065 ± 0.03 | -0.008 ± 0.0099 | -0.0175 ± 0.0021 | 0.043 ± 0.065 | 0.021 ± 0.021 | -0.0105 ± 0.021 | 0.0005 ± 0.044 | -0.01 ± 0.0071 | -0.014 ± 0.0042 | 0.0245 ± 0.015 | -0.007 ± 0.0085 | -0.0115 ± 0.0078 | -0.017 ± 0.031 | 0.0235 ± 0.0021 | -0.004 ± 0.018 | -0.021 ± 0.031 | 0.01 ± 0.028 | -0.0095 ± 0.016 | 0.0075 ± 0.016
4 | CASM3C:CD142/Tissue Factor | 0.0155 ± 0.049 | -0.055 ± 0.0028 | 0.003 ± 0.033 | 0.0015 ± 0.005 | 0.0185 ± 0.021 | -0.0125 ± 0.013 | -0.019 ± 0.0042 | -0.0145 ± 0.005 | -0.0235 ± 0.019 | -0.006 ± 0.0099 | 0.046 ± 0.079 | -0.035 ± 0.02 | -0.033 ± 0.048 | -0.0525 ± 0.09 | -0.016 ± 0.041 | -0.014 ± 0.023 | -0.0265 ± 0.029 | -0.0085 ± 0.0035 | -0.0115 ± 0.018 | 0.0135 ± 0.012
5 | CASM3C:CXCL8/IL-8 | 0.004 ± 0.0042 | 0.004 ± 0.0028 | -0.002 ± 0.017 | -0.016 ± 0.014 | 0.0075 ± 0.0064 | 0.0005 ± 0.021 | 0.007 ± 0.0099 | 0.0265 ± 0.028 | -0.01 ± 0.02 | 0 ± 0.024 | 0.023 ± 0.048 | 0.001 ± 0.038 | 0.0045 ± 0.025 | 0.0485 ± 0.0021 | 0.001 ± 0.027 | 0.023 ± 0.018 | 0.048 ± 0.04 | 0.0255 ± 0.049 | 0.0255 ± 0.025 | 0.0375 ± 0.025
6 | CASM3C:CXCL9/MIG | -0.0355 ± 0.025 | -0.057 ± 0.042 | -0.0195 ± 0.019 | -0.02 ± 0.0085 | 0.022 ± 0.033 | 0.008 ± 0.0057 | 0.001 ± 0.0042 | 0.012 ± 0.021 | 0.0115 ± 0.011 | 0.019 ± 0.028 | 0.041 ± 0.03 | -0.0085 ± 0.00071 | -0.003 ± 0.0014 | 0.0705 ± 0.032 | 0.015 ± 0.0071 | 0.012 ± 0.016 | 0.09 ± 0.027 | 0.01 ± 0.028 | 0.0135 ± 0.035 | 0.0465 ± 0.0092
7 | CASM3C:HLA-DR | 0.0055 ± 0.0064 | -0.007 ± 0.0071 | 0.0165 ± 0.049 | -0.015 ± 0.045 | 0.0055 ± 0.019 | 0.004 ± 0.0099 | -0.004 ± 0.0057 | -0.004 ± 0.011 | -0.0265 ± 0.012 | -0.048 | -0.03 ± 0.081 | -0.0365 ± 0.012 | -0.0465 ± 0.016 | -0.0395 ± 0.052 | -0.0015 ± 0.0021 | -0.035 ± 0.028 | -0.0235 ± 0.054 | -0.0085 ± 0.0035 | -0.0075 ± 0.00071 | -0.0025 ± 0.0078
8 | CASM3C:IL-6 | -0.0105 ± 0.013 | 0.0315 ± 0.056 | -0.0175 ± 0.0035 | -0.015 ± 0.021 | 0.022 ± 0.082 | -0.0075 ± 0.042 | -0.0155 ± 0.0021 | -0.0125 ± 0.053 | -0.0215 ± 0.06 | -0.004 ± 0.025 | 0.0865 ± 0.032 | -0.0375 ± 0.0078 | -0.0465 ± 0.005 | -0.061 ± 0.099 | -0.025 ± 0.0042 | -0.0285 ± 0.016 | -0.0425 ± 0.083 | -0.032 ± 0.028 | -0.0375 ± 0.0021 | -0.015 ± 0.0057
9 | CASM3C:LDLR | -0.016 ± 0.021 | 0.026 ± 0.024 | -0.009 ± 0.0099 | -0.0175 ± 0.026 | -0.015 ± 0.014 | 0.001 ± 0.0028 | -0.0065 ± 0.029 | -0.0025 ± 0.039 | -0.0075 ± 0.0021 | -0.005 ± 0.0042 | 0.0505 ± 0.039 | -0.002 ± 0.0085 | -0.007 ± 0.0014 | -0.0165 ± 0.032 | 0.021 ± 0.0014 | 0.0275 ± 0.019 | -0.0205 ± 0.036 | -0.0305 ± 0.0035 | -0.0255 ± 0.025 | -0.0345 ± 0.053
10 | CASM3C:M-CSF | -0.0035 ± 0.0078 | 0.0125 ± 0.028 | -0.0135 ± 0.022 | -0.0185 ± 0.033 | 0.018 ± 0.018 | -0.0185 ± 0.019 | -0.0125 ± 0.013 | 0.0105 ± 0.0092 | -0.0145 ± 0.011 | -0.008 ± 0.011 | 0.045 ± 0.04 | -0.0135 ± 0.016 | 0.009 ± 0.0028 | -0.009 ± 0.03 | 0.003 ± 0.028 | 0.016 ± 0.016 | -0.007 ± 0.064 | -0.007 ± 0.031 | -0.002 | 0.0025 ± 0.011
11 | CASM3C:PAI-I | 0.0015 ± 0.00071 | 0.0035 ± 0.00071 | -0.0015 ± 0.015 | -0.0005 ± 0.0064 | 0.0075 ± 0.0064 | 0.0005 ± 0.005 | -0.003 ± 0.0042 | 0.0095 ± 0.005 | -0.0035 ± 0.011 | 0.003 ± 0.0071 | 0.0015 ± 0.0078 | -0.001 ± 0.0071 | 0 ± 0.0014 | 0.0095 ± 0.0021 | 0.009 | 0.004 | 0.0165 ± 0.0064 | -0.0095 ± 0.012 | 0.0035 ± 0.0064 | 0.007 ± 0.0099
12 | CASM3C:Proliferation | -0.001 | 0.0105 ± 0.04 | -0.015 ± 0.083 | -0.029 ± 0.0071 | 0.004 ± 0.0071 | -0.001 ± 0.018 | -0.065 | -0.0055 ± 0.015 | -0.0545 ± 0.005 | -0.062 ± 0.044 | -0.101 ± 0.03 | 0.006 ± 0.042 | 0.0055 ± 0.022 | 0.057 ± 0.02 | -0.0125 ± 0.033 | 0.006 ± 0.042 | 0.023 ± 0.0099 | -0.0455 ± 0.044 | -0.0405 ± 0.013 | -0.019 ± 0.017
13 | CASM3C:SRB | -0.0025 ± 0.0021 | -0.0015 ± 0.0064 | -0.001 ± 0.0028 | -0.0035 ± 0.0021 | 0.0065 ± 0.005 | -0.001 | -0.013 ± 0.0028 | -0.0005 ± 0.0021 | -0.0115 ± 0.0035 | -0.017 ± 0.0028 | -0.008 ± 0.0085 | 0.003 ± 0.0042 | 0.0005 ± 0.0064 | 0.0095 ± 0.011 | 0.011 ± 0.0042 | 0.004 | 0.006 | -0.0045 ± 0.0035 | -0.0045 ± 0.0035 | -0.008 ± 0.0028
14 | CASM3C:Serum Amyloid A | -0.007 ± 0.031 | 0.0135 ± 0.076 | 0.0395 ± 0.049 | 0.027 ± 0.018 | 0.0085 ± 0.019 | 0.0315 ± 0.012 | -0.003 ± 0.0028 | 0.01 ± 0.047 | -0.0065 ± 0.044 | -0.0225 ± 0.015 | 0.083 ± 0.055 | 0.0035 ± 0.0021 | -0.017 ± 0.0014 | -0.005 ± 0.04 | 0.0085 ± 0.026 | 0.001 ± 0.03 | 0.0125 ± 0.057 | -0.0575 ± 0.08 | -0.0795 ± 0.071 | -0.068 ± 0.055
15 | HDF3CGF:CCL2/MCP-1 | -0.034 ± 0.017 | -0.018 ± 0.016 | -0.01 ± 0.0028 | -0.0215 ± 0.012 | -0.005 ± 0.0042 | -0.0145 ± 0.00071 | -0.009 ± 0.03 | -0.0205 ± 0.04 | 0.028 ± 0.011 | -0.005 ± 0.0014 | -0.0855 ± 0.056 | -0.005 ± 0.0042 | -0.013 ± 0.0071 | 0.01 ± 0.033 | 0.002 ± 0.011 | -0.003 ± 0.0042 | 0.001 ± 0.017 | -0.0075 ± 0.037 | 0.0005 ± 0.025 | -0.023 ± 0.03
